Source: ChEMBL document CHEMBL3286376, “Design, synthesis and biological evaluation of hydroxy- or methoxy-substituted 5-benzylidene(thio) barbiturates as novel tyrosinase inhibitors” (Bioorg Med Chem, 2014)
Activity calls are given as the source filed them. The rule behind the calls is not given here.

Experiments:
[1] = molecular target: T1, Tyrosinase (Agaricus bisporus) (UniProt O42713); assay: Inhibition of mushroom tyrosinase diphenolase activity using L-DOPA as substrate assessed as formation of DOPAchrome at 100 uM preincubated for 10 mins followed by substrate addition measured for 1 min relative to control
T1 sequence (whole entry): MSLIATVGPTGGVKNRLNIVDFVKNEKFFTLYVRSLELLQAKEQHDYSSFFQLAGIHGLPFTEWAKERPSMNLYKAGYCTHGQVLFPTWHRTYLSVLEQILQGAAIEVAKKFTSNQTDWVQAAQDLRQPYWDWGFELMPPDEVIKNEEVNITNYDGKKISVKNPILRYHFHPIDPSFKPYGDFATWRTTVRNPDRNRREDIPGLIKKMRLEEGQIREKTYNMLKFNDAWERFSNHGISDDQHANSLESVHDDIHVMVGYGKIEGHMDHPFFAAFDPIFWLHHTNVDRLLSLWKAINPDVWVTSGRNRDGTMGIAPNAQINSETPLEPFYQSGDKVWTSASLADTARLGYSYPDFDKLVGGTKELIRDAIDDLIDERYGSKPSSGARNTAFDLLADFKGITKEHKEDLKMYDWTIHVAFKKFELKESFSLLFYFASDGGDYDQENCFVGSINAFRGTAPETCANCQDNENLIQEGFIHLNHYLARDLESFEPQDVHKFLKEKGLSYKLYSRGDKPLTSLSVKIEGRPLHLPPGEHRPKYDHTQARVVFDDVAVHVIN

Tyrosinase = molecular target: T2, Tyrosinase (Agaricus bisporus, UniProt O42713)
T2 sequence (O42713 whole entry): T1 sequence (whole entry)
Description: Inhibition of mushroom tyrosinase diphenolase activity using L-DOPA as substrate assessed as formation of DOPAchrome preincubated for 10 mins followed by substrate addition measured for 1 min

[2] = molecular target: T1, Tyrosinase (Agaricus bisporus); assay: Irreversible inhibition of mushroom tyrosinase diphenolase activity assessed as oxidation of L-DOPA at 5 to 10 uM
[3] = molecular target: T1, Tyrosinase (Agaricus bisporus); assay: Irreversible inhibition of mushroom tyrosinase diphenolase activity assessed as oxidation of L-DOPA at 1 to 2 uM

Structure (SMILES) | inhibition [1] | IC50 (Tyrosinase) | other results
O=C1NC(=S)NC(=O)C1=Cc1cccc(O)c1 | < 20% | – | –
O=C1NC(=S)NC(=O)C1=Cc1ccc(O)c(O)c1 | – | 6.1 µM | inhibition [2]: Active
COc1cc(C=C2C(=O)NC(=O)NC2=O)ccc1O | – | 5.5 µM | –
O=C1NC(=S)NC(=O)C1=Cc1ccc(O)c(O)c1O | – | 95.8 µM | –
O=C1CC(=O)NC(=S)N1 | < 20% | – | –
O=C1NC(=S)NC(=O)C1=Cc1ccc(O)cc1O | < 20% | – | –
O=C1NC(=O)C(=Cc2ccc(O)c(O)c2)C(=O)N1 | – | 1.52 µM | inhibition [3]: Active
O=C1NC(=S)NC(=O)C1=Cc1c(O)cc(O)cc1O | < 20% | – | –
O=C1NC(=O)C(=Cc2c(O)cc(O)cc2O)C(=O)N1 | < 20% | – | –
O=C1NC(=O)C(=Cc2cc(O)c(O)c(O)c2)C(=O)N1 | – | 5.51 µM | –
COc1ccc(C=C2C(=O)NC(=O)NC2=O)cc1 | – | 100 µM | –
COc1ccc(C=C2C(=O)NC(=O)NC2=O)cc1O | < 20% | – | –
COc1cc(C=C2C(=O)NC(=O)NC2=O)cc(OC)c1OC | < 20% | – | –
O=C1NC(=O)C(=Cc2ccc(O)cc2O)C(=O)N1 | – | 17.2 µM | –
O=C1NC(=O)C(=Cc2cccc(O)c2)C(=O)N1 | < 20% | – | –
COc1ccc(C=C2C(=O)NC(=S)NC2=O)cc1 | – | 70.1 µM | –
O=C1NC(=O)C(=Cc2ccccc2O)C(=O)N1 | < 20% | – | –
O=C1NC(=O)C(=Cc2ccc(O)c(O)c2O)C(=O)N1 | < 20% | – | –
COc1ccc(C=C2C(=O)NC(=S)NC2=O)cc1O | < 20% | – | –
O=Cc1ccc(O)c(O)c1 | < 20% | – | –
O=C1NC(=S)NC(=O)C1=Cc1ccccc1O | < 20% | – | –
O=C1CC(=O)NC(=O)N1 | < 20% | – | –
COc1cc(C=C2C(=O)NC(=S)NC2=O)cc(OC)c1OC | < 20% | – | –
COc1cc(C=C2C(=O)NC(=S)NC2=O)ccc1O | – | 7.8 µM | –
O=C1NC(=S)NC(=O)C1=Cc1cc(O)c(O)c(O)c1 | – | 7.14 µM | –
